# In patent US12570603B2, “FABP4/5 inhibitors, methods of use and methods of making” (Novius Therapeutics, LLC, priority 2021, dated 2026):
# Where two headings read alike, the source gives them in different places.
# Columns and labels:
# [1] = tested on: MB-231 shC and shF5 cells; experiment: Proliferation assay, MB-231 lines expressing control shRNA (shC) or FABP5 shRNA (shF5); format: cell-based; conditions: MB-231 shC vs shF5, different concentrations
# Experimental: (§1) 2000 cells were plated in each well of 96-well plate. The next day cells were treated with compounds and incubated in Incucyte for 4 days. Images taken every 4 hours for the duration of the time were analyzed to calculate percentage of confluency in response to the treatments. Growth inhibition was calculated as 1−(percentage of viable cells out of untreated cells).
# [2] = tested on: PPARγ; experiment: Transactivation assay, PPRE luciferase reporter in COS-7 cells; format: cell-based; conditions: tested against rosiglitazone, FIG. 4
# Experimental: (§2) COS-7 were cultured in 6-well plates and co-transfected with either a luciferase reporter driven by 3 copies of a PPRE and expression vector for either PPARδ, PPARα or PPARγ together with a vector harboring cDNA for β-galactosidase, serving as a transfection control. To test whether FABP4 or FABP5 mediate activation of their cognate receptors PPARγ and PPARδ, respectively, cells were also co-transfected with a plasmid harboring sequence of either FABP4 or FABP5. 18 h post-transfection, cells were placed in a serum-free medium and treated with agonist/compound. 18 h. later, cells were lysed, luciferase activity was assayed (Promega, WI, USA) and corrected for transfection efficiency by the activity of β-galactosidase.
# (§3) COS-7 were cultured in 6-well plates and co-transfected with either a luciferase reporter driven by 3 copies of a PPRE and expression vector for either PPARδ, PPARα or PPARγ together with a vector harboring cDNA for β-galactosidase, serving as a transfection control. 18 h. post-transfection, cells were placed in a serum-free medium and treated with agonist/compound. 18 h. later, cells were lysed, luciferase activity was assayed (Promega, WI, USA) and corrected for transfection efficiency by the activity of β-galactosidase.
# [3] = tested on: PPARδ; experiment: as above; format: cell-based; conditions: compared to GW0742, FIG. 5
# Experimental: as §2, §3
# [4] = tested on: TNBC lines and MCF7; experiment: Proliferation assay in multiple TNBC lines and MCF7, MB-231 shF5 as control; format: cell-based
# Experimental: as §1
# [5] = tested on: HepG2 cells; experiment: Lipid uptake assay, oleic acid, Nile Red (steatosis model); format: cell-based, human; conditions: OA 1 mM
# Experimental: 2) Hepg2 cells: 5000 cells were plated in 96-well plate. The next day cells were treated with tested compounds for 4 hours and then treated with 1 mM oleic acid for additional 24 hours. Cells were then stained with Nile Red and Dapi and lipid content was quantified using Cytation5 (Agilent).
# 2) Hepg2 cells: 5000 cells were plated in 96-well plate. The next day cells were treated with tested compounds for 4 hours and then treated with 1 mM oleic acid for additional 24 hours. Cells were then stained with Nile Red and Dapi and lipid content was quantified.
# [6] = tested on: LX-2 cells; experiment: Hepatic stellate cells activation assay (αSMA after TGF-β); format: cell-based, human; conditions: B4 0.1 to 5 μM versus untreated cells
# Experimental: LX-2 cells were treated with compound for 6 h. then stimulated with TGF-β ([…]) for additional 24 h. Cells were fixed with 4% paraformaldehyde and immununostained with the fibrosis marker αSMA. Nuclei were stained with Dapi. Images and quantification of positive cells was done using Cytation5 (Agilent).
# [7] = tested on: 3T3-L1 adipocytes; experiment: Lipid uptake during adipocyte maturation, Nile Red; format: cell-based, mouse; conditions: B4 from day 6, stained day 12
# Experimental: (§4) 3) 3T3-L1: Mouse 3T3-L1 cells were differentiated in culture according to ATCC protocol to become mature adipocytes. At day 6 of the differentiation, compound treatment started. Cells were stained by Nile Red on day and color intensity in each cell was measured relative to Dapi staining. Lipolysis was measured by measuring glycerol levels using lipolysis kit (Cayman, USA) according to the manufacturer manual.
# as §4, with “1)” for “3)”
# [8] = biological target: T1, FABP4 (Homo sapiens, UniProt P15090); experiment: FABP binding assay by fluorescence titration (ANS competition)
# T1 construct: made in house
# T1 sequence (P15090 whole entry, species assumed): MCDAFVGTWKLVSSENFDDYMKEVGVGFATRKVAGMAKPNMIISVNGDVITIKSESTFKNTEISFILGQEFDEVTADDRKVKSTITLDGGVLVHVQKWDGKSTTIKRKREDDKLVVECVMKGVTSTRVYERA
# Experimental: (§5) This example illustrates a binding assay study used to determine the binding affinity of the various inhibitor compounds disclosed herein with the various FABPs: FABP3, FABP4, FABP5 and FABP7.
# (§6) Binding assays for FABP3, FABP4, FABP5 and FABP7 were carried out by fluorescence titrations. FABPs were bacterially expressed and purified and the equilibrium dissociation constants (Kd) that characterize their interactions with different compounds were measured by fluorescence competition assays. The method entails two steps as described in e.g., Lin, Q. et al., “Ligand selectivity of the peroxisome proliferator-activated receptor alpha,” Biochemistry 38, 185-190, doi:10.1021/bi9816094 bi9816094 [pii](1999). In the first step, Kd for the association of the protein with the fluorescent fatty acid probe ANS was measured. Protein ([…]) was titrated with ANS from a concentrated solution in DMSO. Ligand binding was monitored by following the increase in the fluorescence of the ligand upon binding to the protein, and Kd for the association of ANS with the each FABP was computed from titration curves as described in e.g., Norris, A. W. & Li, E., “Fluorometric titration of the CRABPs,” Methods Mol Biol 89, 123-139 (1998)). Kds for binding of non-fluorescent ligands were then measured by monitoring their ability to displace ANS in the binding pocket of the protein. Each FABP was pre-complexed with ANS at 1:1 molar ratio and titrated with the different compounds whose binding was reflected by a decrease in probe fluorescence. Kds were extracted from the EC50 of the competition curve and the measured Kd for ANS.
# (§7) Binding assays for FABP3, FABP4, FABP5 and FABP7 were carried out by fluorescence titrations as described in Example 16.
# [9] = biological target: T2, FABP5 (Homo sapiens, UniProt Q01469); experiment: as above
# T2 construct: made in house
# T2 sequence (Q01469 whole entry, species assumed): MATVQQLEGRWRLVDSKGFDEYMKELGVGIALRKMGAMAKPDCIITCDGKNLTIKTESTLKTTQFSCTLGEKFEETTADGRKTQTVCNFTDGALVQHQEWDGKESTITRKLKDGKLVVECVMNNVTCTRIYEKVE
# Experimental: as §5, §6, §7
# [10] = tested on: FABP5 together with PPARδ; experiment: Transcriptional activation assay in cells overexpressing FABP5, with PPARδ activator GW0742; format: cell-based; conditions: together with GW0742, FIG. 8
# Experimental: as §2
# [11] = tested on: BT-549 cells; experiment: Proliferation assay, combination with chemotherapy; format: cell-based, human; conditions: B4 1 μM with doxorubicin 0 to 100 nM
# Experimental: as §1
# [12] = tested on: PPARδ targets PDPK1 and CD47 in TNBC cells MB-157; experiment: Real-time PCR of PPARδ targets; format: cell-based, human; conditions: MB-157, 1 μM, 6 hours
# Experimental: Cells were treated with a compound for 6 h. then lysed and RNA was extracted using Trizol, according to the manufacturer's instructions. cDNA was generated using GeneAmp RNA PCR (Applied Biosystems). qPCR was carried out using TaqMan chemistry and Assays-on-Demand probes (Applied Biosystems). 18s (4352930) rRNA was used for normalization. Relative expression was calculated as 2^−ΔΔCT.
smiles,measurement,setting,value
"CC(C)Oc1cc(NC(=O)CSCC(=O)O)c(Cl)cc1Cl [Compound B4, 2-((2-((2,4-dichloro-5-isopropoxyphenyl)amino)-2-oxoethyl)thio)acetic acid]","TNBC cell growth, shC versus shF5",[1],suppressed TNBC cell growth only in the cells highly expressing FABP5
same,activation of transcription by PPARγ,[2],did not activate transcription
same,activation of transcription by PPARδ,[3],did not active transcription
same,growth inhibition of TNBC lines by FABP5 level,[4],inhibited growth of only TNBC lines expressing high FABP5 levels
same,uptake of lipids into hepatocytes (Nile Red),[5]; B4 0.1 to 5 μM,prevented uptake of lipids into hepatocytes
same,size of the lipid droplets,[5]; B4 treated cells,significantly smaller droplets
same,levels of α-SMA following activation by TGF-β,[6],significantly lower than in untreated cells
same,lipid droplets in adipocytes (Nile Red),[7],fewer LD within the cells
same,Kd,"[8]; FIG. 1A/1B, read-out: binding affinity towards FABP4 (Kd)",< 1000 nM
same,Kd,"[8]; fluorescence competition with ANS, read-out: FABP4 binding",66 nM
same,Kd,"[9]; FIG. 1A/1B, read-out: binding affinity towards FABP5 (Kd)",< 1000 nM
same,Kd,"[9]; fluorescence competition with ANS, read-out: FABP5 binding",36 nM
same,inhibition of PPARδ activity in cells overexpressing FABP5,[10],inhibit activity of the nuclear receptors only in cells that express the binding proteins
same,sensitization to chemotherapy,[11],sensitized to chemotherapy
same,levels of endogenous PPARδ targets PDPK1 and CD47,[12],significantly lower
